Assays:
[1] = The drug is tested on Collinsella intestinalis strain: DSM13280 for biotransformation. The drug concentrations were measured before and after a 12-h incubation by liquid-chromatography-coupled mass spectrometry (LC–MS); conditions: 2 µM
[2] = The drug is tested on Bacteroides caccae strain: ATCC43185 for biotransformation. The drug concentrations were measured before and after a 12-h incubation by liquid-chromatography-coupled mass spectrometry (LC–MS); conditions: 2 µM
[3] = The drug is tested on Bacteroides cellulosilyticus strain: DSM14838 for biotransformation. The drug concentrations were measured before and after a 12-h incubation by liquid-chromatography-coupled mass spectrometry (LC–MS); conditions: 2 µM
[4] = The drug is tested on Bacteroides fragilis strain: ATCC43859 for biotransformation. The drug concentrations were measured before and after a 12-h incubation by liquid-chromatography-coupled mass spectrometry (LC–MS); conditions: 2 µM
[5] = The drug is tested on Parabacteroides merdae strain: ATCC43184 for biotransformation. The drug concentrations were measured before and after a 12-h incubation by liquid-chromatography-coupled mass spectrometry (LC–MS); conditions: 2 µM
[6] = The drug is tested on Anaerococcus hydrogenalis strain: DSM7454 for biotransformation. The drug concentrations were measured before and after a 12-h incubation by liquid-chromatography-coupled mass spectrometry (LC–MS); conditions: 2 µM
[7] = The drug is tested on Anaerotruncus colihominis strain: DSM17241 for biotransformation. The drug concentrations were measured before and after a 12-h incubation by liquid-chromatography-coupled mass spectrometry (LC–MS); conditions: 2 µM
[8] = The drug is tested on Blautia luti strain: DSM14534 for biotransformation. The drug concentrations were measured before and after a 12-h incubation by liquid-chromatography-coupled mass spectrometry (LC–MS); assay type: ADME; set-up: dose 2 uM, timepoint 0 vs 12 hours; conditions: 2 µM
[9] = The drug is tested on Clostridium sp. strain: fecal isolate for biotransformation. The drug concentrations were measured before and after a 12-h incubation by liquid-chromatography-coupled mass spectrometry (LC–MS); conditions: 2 µM
[10] = The drug is tested on Clostridium scindens strain: ATCC35704 for biotransformation. The drug concentrations were measured before and after a 12-h incubation by liquid-chromatography-coupled mass spectrometry (LC–MS); conditions: 2 µM
[11] = The drug is tested on Clostridium sporogenes strain: ATCC15579 for biotransformation. The drug concentrations were measured before and after a 12-h incubation by liquid-chromatography-coupled mass spectrometry (LC–MS); conditions: 2 µM
[12] = The drug is tested on Ruminococcus gnavus strain: ATCC29149 for biotransformation. The drug concentrations were measured before and after a 12-h incubation by liquid-chromatography-coupled mass spectrometry (LC–MS); conditions: mediterraneibacter gnavus, 2 µM
[13] = The drug is tested on Edwardsiella tarda strain: ATCC23685 for biotransformation. The drug concentrations were measured before and after a 12-h incubation by liquid-chromatography-coupled mass spectrometry (LC–MS); conditions: 2 µM
[14] = The drug is tested on Enterobacter cancerogenus strain: ATCC35316 for biotransformation. The drug concentrations were measured before and after a 12-h incubation by liquid-chromatography-coupled mass spectrometry (LC–MS); conditions: 2 µM
[15] = The drug is tested on Providencia rettgeri strain: DSM1131 for biotransformation. The drug concentrations were measured before and after a 12-h incubation by liquid-chromatography-coupled mass spectrometry (LC–MS); assay type: ADME; set-up: dose 2 uM, timepoint 0 vs 12 hours; conditions: 2 µM
[16] = bacteroides stercoris, 12 h, 2 µM
Description: The drug is tested on Bacteroides stercoris strain: ATCC43183 for biotransformation. The drug concentrations were measured before and after a 12-h incubation by liquid-chromatography-coupled mass spectrometry (LC–MS)

[17] = bacteroides thetaiotaomicron, 12 h, 2 µM
Description: The drug is tested on Bacteroides thetaiotaomicron strain: 3731 for biotransformation. The drug concentrations were measured before and after a 12-h incubation by liquid-chromatography-coupled mass spectrometry (LC–MS)

[18] = parabacteroides distasonis, 12 h, 2 µM
Description: The drug is tested on Parabacteroides distasonis strain: ATCC8503 for biotransformation. The drug concentrations were measured before and after a 12-h incubation by liquid-chromatography-coupled mass spectrometry (LC–MS)

[19] = The drug is tested on Bacteroides finegoldii strain: DSM17565 for biotransformation. The drug concentrations were measured before and after a 12-h incubation by liquid-chromatography-coupled mass spectrometry (LC–MS); conditions: 2 µM

Compound: NS(=O)(=O)c1cc2c(cc1Cl)N=C(CSCc1ccccc1)NS2(=O)=O [BENZTHIAZIDE]
- Bacterial Biotransformation [1]: Compound NOT metabolized
- Bacterial Biotransformation [2]: Compound NOT metabolized
- Bacterial Biotransformation [3]: Compound NOT metabolized
- Bacterial Biotransformation [4]: Compound NOT metabolized
- Bacterial Biotransformation [5]: Compound NOT metabolized
- Bacterial Biotransformation [6]: Compound NOT metabolized
- Bacterial Biotransformation [7]: Compound NOT metabolized
- Bacterial Biotransformation [8]: Compound NOT metabolized
- Bacterial Biotransformation [9]: Compound metabolized
- Bacterial Biotransformation [10]: Compound NOT metabolized
- Bacterial Biotransformation [11]: Compound NOT metabolized
- Bacterial Biotransformation [12]: Compound NOT metabolized
- Bacterial Biotransformation [13]: Compound NOT metabolized
- Bacterial Biotransformation [14]: Compound NOT metabolized
- Bacterial Biotransformation [15]: Compound NOT metabolized
- Bacterial Biotransformation [16]: Compound NOT metabolized
- Bacterial Biotransformation [17]: Compound NOT metabolized
- Bacterial Biotransformation [18]: Compound NOT metabolized

Compound: CC(C)(Oc1ccc(CCNC(=O)c2ccc(Cl)cc2)cc1)C(=O)O [BEZAFIBRATE]
- Bacterial Biotransformation [1]: Compound metabolized
- Bacterial Biotransformation [2]: Compound metabolized
- Bacterial Biotransformation [3]: Compound metabolized
- Bacterial Biotransformation [19]: Compound metabolized
- Bacterial Biotransformation [4]: Compound metabolized
- Bacterial Biotransformation [5]: Compound metabolized
- Bacterial Biotransformation [6]: Compound metabolized
- Bacterial Biotransformation [7]: Compound NOT metabolized
- Bacterial Biotransformation [8]: Compound metabolized
- Bacterial Biotransformation [9]: Compound metabolized
- Bacterial Biotransformation [10]: Compound metabolized
- Bacterial Biotransformation [11]: Compound metabolized
- Bacterial Biotransformation [12]: Compound NOT metabolized
- Bacterial Biotransformation [13]: Compound metabolized
- Bacterial Biotransformation [14]: Compound metabolized
- Bacterial Biotransformation [15]: Compound metabolized
- Bacterial Biotransformation [16]: Compound metabolized
- Bacterial Biotransformation [17]: Compound metabolized
- Bacterial Biotransformation [18]: Compound metabolized

Compound: CCCC1O[C@@H]2C[C@H]3[C@@H]4CCC5=CC(=O)C=C[C@]5(C)[C@H]4[C@@H](O)C[C@]3(C)[C@]2(C(=O)CO)O1 (some centres undefined) [BUDESONIDE]
- Bacterial Biotransformation [1]: Compound NOT metabolized
- Bacterial Biotransformation [2]: Compound NOT metabolized
- Bacterial Biotransformation [3]: Compound NOT metabolized
- Bacterial Biotransformation [19]: Compound NOT metabolized
- Bacterial Biotransformation [4]: Compound metabolized
- Bacterial Biotransformation [5]: Compound metabolized
- Bacterial Biotransformation [6]: Compound NOT metabolized
- Bacterial Biotransformation [7]: Compound NOT metabolized
- Bacterial Biotransformation [8]: Compound NOT metabolized
- Bacterial Biotransformation [9]: Compound metabolized
- Bacterial Biotransformation [10]: Compound NOT metabolized
- Bacterial Biotransformation [12]: Compound NOT metabolized
- Bacterial Biotransformation [13]: Compound NOT metabolized
- Bacterial Biotransformation [14]: Compound NOT metabolized
- Bacterial Biotransformation [16]: Compound metabolized
- Bacterial Biotransformation [17]: Compound metabolized
- Bacterial Biotransformation [18]: Compound NOT metabolized

Compound: CCCC(C)(COC(N)=O)COC(=O)NC(C)C (centres undefined) [CARISOPRODOL]
- Bacterial Biotransformation [1]: Compound NOT metabolized
- Bacterial Biotransformation [2]: Compound NOT metabolized
- Bacterial Biotransformation [3]: Compound metabolized
- Bacterial Biotransformation [19]: Compound NOT metabolized
- Bacterial Biotransformation [4]: Compound metabolized
- Bacterial Biotransformation [5]: Compound NOT metabolized
- Bacterial Biotransformation [9]: Compound metabolized
- Bacterial Biotransformation [10]: Compound NOT metabolized
- Bacterial Biotransformation [12]: Compound NOT metabolized
- Bacterial Biotransformation [14]: Compound NOT metabolized
- Bacterial Biotransformation [16]: Compound metabolized
- Bacterial Biotransformation [18]: Compound metabolized

Compound: COc1ccc2c(c1OC)C(=O)O[C@@H]2[C@H]1c2c(cc3c(c2OC)OCO3)CCN1C [NOSCAPINE]
- Bacterial Biotransformation [1]: Compound metabolized
- Bacterial Biotransformation [2]: Compound NOT metabolized
- Bacterial Biotransformation [3]: Compound metabolized
- Bacterial Biotransformation [19]: Compound metabolized
- Bacterial Biotransformation [4]: Compound NOT metabolized
- Bacterial Biotransformation [5]: Compound metabolized
- Bacterial Biotransformation [6]: Compound metabolized
- Bacterial Biotransformation [7]: Compound metabolized
- Bacterial Biotransformation [8]: Compound metabolized
- Bacterial Biotransformation [10]: Compound metabolized
- Bacterial Biotransformation [11]: Compound NOT metabolized
- Bacterial Biotransformation [12]: Compound NOT metabolized
- Bacterial Biotransformation [13]: Compound metabolized
- Bacterial Biotransformation [14]: Compound metabolized
- Bacterial Biotransformation [15]: Compound metabolized
- Bacterial Biotransformation [16]: Compound metabolized
- Bacterial Biotransformation [18]: Compound metabolized

Compound: CCOc1cc(CC(=O)N[C@@H](CC(C)C)c2ccccc2N2CCCCC2)ccc1C(=O)O [REPAGLINIDE]
- Bacterial Biotransformation [1]: Compound NOT metabolized
- Bacterial Biotransformation [3]: Compound metabolized
- Bacterial Biotransformation [19]: Compound metabolized
- Bacterial Biotransformation [4]: Compound metabolized
- Bacterial Biotransformation [5]: Compound NOT metabolized
- Bacterial Biotransformation [6]: Compound NOT metabolized
- Bacterial Biotransformation [7]: Compound NOT metabolized
- Bacterial Biotransformation [8]: Compound NOT metabolized
- Bacterial Biotransformation [9]: Compound NOT metabolized
- Bacterial Biotransformation [10]: Compound NOT metabolized
- Bacterial Biotransformation [12]: Compound NOT metabolized
- Bacterial Biotransformation [13]: Compound NOT metabolized
- Bacterial Biotransformation [14]: Compound NOT metabolized
- Bacterial Biotransformation [15]: Compound NOT metabolized
- Bacterial Biotransformation [16]: Compound metabolized
- Bacterial Biotransformation [17]: Compound NOT metabolized
- Bacterial Biotransformation [18]: Compound metabolized

Compound: CCOC(=O)[C@H](CCc1ccccc1)N[C@@H](C)C(=O)N1[C@H](C(=O)O)C[C@H]2CCCC[C@@H]21 [TRANDOLAPRIL]
- Bacterial Biotransformation [2]: Compound NOT metabolized
- Bacterial Biotransformation [3]: Compound metabolized
- Bacterial Biotransformation [19]: Compound NOT metabolized
- Bacterial Biotransformation [4]: Compound metabolized
- Bacterial Biotransformation [5]: Compound NOT metabolized
- Bacterial Biotransformation [6]: Compound metabolized
- Bacterial Biotransformation [8]: Compound NOT metabolized
- Bacterial Biotransformation [10]: Compound NOT metabolized
- Bacterial Biotransformation [11]: Compound metabolized
- Bacterial Biotransformation [12]: Compound NOT metabolized
- Bacterial Biotransformation [13]: Compound NOT metabolized
- Bacterial Biotransformation [14]: Compound NOT metabolized
- Bacterial Biotransformation [15]: Compound metabolized
- Bacterial Biotransformation [18]: Compound metabolized
